Source: US20250162995A1, “PHENTOLAMINE MESYLATE AND THERAPEUTIC USES THEREOF” (Opus Genetics, Inc., priority 2023, published 2025)
Structures can show the parent of a compound that is named as a salt.

assay: XRPD analysis of the solid form after further drying (form stability); assay type: physicochemical; settings: further dried at 0.24 bar and 25° C. for 16 hours
Experimental: Unless otherwise noted, XRPD data was collected using a PANanalytical EMPYREAN vs. 8.2 20201404 diffractometer with a Cu-Kα radiation (λ=1.541874 Å) source operating at 45 kV and 40 mA in transmission theta-theta configuration. Samples were scanned from 2° to 40° 2-theta with a step size of 0.013° 2-theta and a time per step of 78.795 sec. Data collection was performed with DATA COLLECTOR vs. 7.1 and processed with Data Viewer vs. 2.1 and Profex 5.2.4 software.
The phentolamine mesylate obtained according to this Example 4 was further dried at 0.24 bar and 25° C. for 16 hours.
The phentolamine mesylate obtained according to this Example 6 was further dried at 25° C. at 0.24 bar for 16 hours.
The phentolamine mesylate obtained according to this Example 7 was further dried at 0.24 bars at 25° C. for 16 hours.
The phentolamine mesylate obtained according to this Example 11 was further dried at 25° C. and 0.24 bar for 16 hours.
The phentolamine mesylate obtained according to this Example 12 was further dried at 25° C. and 0.24 bar for 16 hours.

SMILES	solid form found by XRPD analysis of the further dried material
Cc1ccc(N(CC2=NCCN2)c2cccc(O)c2)cc1 [Example 4, phentolamine mesylate]	converted to a mixture of the phentolamine mesylate having XRPD peaks of Reference A and the phentolamine mesylate obtained according to Example 1
Cc1ccc(N(CC2=NCCN2)c2cccc(O)c2)cc1 [Example 7, phentolamine mesylate]	converted to the phentolamine mesylate obtained according to Example 1
Cc1ccc(N(CC2=NCCN2)c2cccc(O)c2)cc1 [Example 11, phentolamine mesylate]	converted to the phentolamine mesylate obtained according to Example 1
Cc1ccc(N(CC2=NCCN2)c2cccc(O)c2)cc1 [Example 12, phentolamine mesylate]	converted to the phentolamine mesylate obtained according to Example 1
Cc1ccc(N(CC2=NCCN2)c2cccc(O)c2)cc1 [Example 6, phentolamine mesylate]	converted to the phentolamine mesylate obtained according to Example 1
